Measurements from patent US20140163061A1, “Methods For Reducing Blood Pressure” (FibroGen, Inc., priority 2008, published 2014).

Tested on: human subjects with chronic kidney disease
Test: Blood pressure in human CKD subjects over a four week period, weekly readings, Example 6
Format: in vivo
Description: Hypertension is a common condition in patients with chronic kidney disease. (Agarwal et al. (2005) Hypertension 46:514-520.) The effect of a compound of the present invention on blood pressure in anemic and non-anemic human subjects with advanced stage chronic kidney disease was examined. All study subjects had chronic kidney disease (CKD), defined as having a glomerular filtration rate (GFR)<59 ml/min. Some of these CKD subjects also had anemia, defined as having hemoglobin (Hb) levels<11 g/dL. Subjects were orally administered compound A or a placebo two or three times per week for four weeks. Blood pressure readings (i.e. systolic, diastolic, and mean arterial pressure) were taken at various times with a sphygmomanometer according to standard assessments. In another series of experiments, the effects of a medicament of the present invention on blood pressure in anemic and non-anemic subjects with chronic kidney disease were determined over a four week period. All subjects were orally administered compound A or a placebo two or three-times per week for four weeks and blood pressure readings were taken weekly. Table 6, Table 7, and Table 8 below show weekly changes in mean arterial pressure (MAP), systolic blood pressure (SBP), and diastolic blood pressure (DBP) following oral administration of compound A to human CKD subjects.

## Cc1nc(C(=O)NCC(=O)O)c(O)c2ccc(Oc3ccccc3)cc12 [A, [(4-hydroxy-1-methyl-7-phenoxy-isoquinoline-3-carbonyl)-amino]-acetic acid]
All Subjects, Week 1
  Mean change from Baseline Diastolic BP (mmHg): −3.66 mmHg
  Mean change from Baseline MAP (mmHg): −4.28 mmHg
  Mean change from Baseline Systolic BP (mmHg): −5.45 mmHg
All Subjects, Week 2
  Mean change from Baseline Diastolic BP (mmHg): −3.37 mmHg
  Mean change from Baseline MAP (mmHg): −5.44 mmHg
  Mean change from Baseline Systolic BP (mmHg): −9.47 mmHg
All Subjects, Week 3
  Mean change from Baseline Diastolic BP (mmHg): −1.53 mmHg
  Mean change from Baseline MAP (mmHg): −4.03 mmHg
  Mean change from Baseline Systolic BP (mmHg): −8.97 mmHg
All Subjects, Week 4
  Mean change from Baseline Diastolic BP (mmHg): −1.54 mmHg
  Mean change from Baseline MAP (mmHg): −2.85 mmHg
  Mean change from Baseline Systolic BP (mmHg): −5.54 mmHg
Anemic, Week 1
  Mean change from Baseline Diastolic BP (mmHg): −4.43 mmHg
  Mean change from Baseline MAP (mmHg): −4.57 mmHg
  Mean change from Baseline Systolic BP (mmHg): −4.80 mmHg
Anemic, Week 2
  Mean change from Baseline Diastolic BP (mmHg): −3.77 mmHg
  Mean change from Baseline MAP (mmHg): −6.13 mmHg
  Mean change from Baseline Systolic BP (mmHg): −10.77 mmHg
Anemic, Week 3
  Mean change from Baseline Diastolic BP (mmHg): −2.50 mmHg
  Mean change from Baseline MAP (mmHg): −5.47 mmHg
  Mean change from Baseline Systolic BP (mmHg): −11.40 mmHg
Anemic, Week 4
  Mean change from Baseline Diastolic BP (mmHg): −1.13 mmHg
  Mean change from Baseline MAP (mmHg): −3.08 mmHg
  Mean change from Baseline Systolic BP (mmHg): −7.25 mmHg
Non-Anemic, Week 1
  Mean change from Baseline Diastolic BP (mmHg): −2.00 mmHg
  Mean change from Baseline MAP (mmHg): −3.67 mmHg
  Mean change from Baseline Systolic BP (mmHg): −6.86 mmHg
Non-Anemic, Week 2
  Mean change from Baseline Diastolic BP (mmHg): −2.50 mmHg
  Mean change from Baseline MAP (mmHg): −3.95 mmHg
  Mean change from Baseline Systolic BP (mmHg): −6.67 mmHg
Non-Anemic, Week 3
  Mean change from Baseline Diastolic BP (mmHg): 0.40 mmHg
  Mean change from Baseline MAP (mmHg): −1.14 mmHg
  Mean change from Baseline Systolic BP (mmHg): −4.10 mmHg
Non-Anemic, Week 4
  Mean change from Baseline Diastolic BP (mmHg): −2.20 mmHg
  Mean change from Baseline MAP (mmHg): −2.48 mmHg
  Mean change from Baseline Systolic BP (mmHg): −2.80 mmHg
